Results published in US6878388B1, “Vanadium compounds for treating proliferative cell disorders” (Parker Hughes Institute, priority 2000, dated 2005).

Assays:
Format in all cases: cell-based, human
[1] = system: MDA-MB-361 breast cancer cells; assay: MTT cytotoxicity assay, MDA-MB-361; details: MDA-MB-361 cells, 48 h incubation, 3 independent experiments, read-out: IC50 (mean ± SE)
Protocol: (§1) Human brain tumor cells lines U87 MG (Cat.# HTB-14), U118 MG (Cat. # HTB-15), U138 (Cat # HTB-16), U373 MG (CAT. # HTB-17), and T98G (Cat. # CRL-1690) and breast cancer cell lines BT-20 (Cat # HTB-19), MDA-MB-231 (Cat # HTB-26), MDA-MB-361 (Cat # HTB-27), and MCF-7 (Cat # HTB-22) were obtained from American Type Culture Collection (ATCC, Rockville, Md.) and maintained as continuous cell lines in Dulbecco's modified Eagles's medium (U87, U118, U138, U373, T98 and BT-20) or Leibovitz's L-15 medium (MDA-MB-231 and MDA-MB-361). All media were supplemented with 10% fetal calf serum (FCS), 4 mM glutamine, 100 U/ml penicillin G and […] streptomycin sulfate. All tissue culture reagents were obtained from Life Technologies Inc. (GIBCO-BRL, Gaithersburg, Md.).
(§2) The cytotoxicity of [VO(SO4)(Me2-Phen)2] against human cancer cell lines was analyzed using the MTT (3-[4,5-dimethylthiazol-2-yl]-2,5-diphenyl tetrazolium bromide) assay (Boehringer Mannheim Corp., Indianapolis, Ind.) as described previously (Narla et al., Clin Cancer Res., 4: 1405-1414, 1998). […] The absorbance at 540 nm (a reference wavelength of 690 nm was used) of the solution in each well was measured using a microplate reader (Labsystems). The percent survival and the IC50 values were calculated using Graphpad Prism v2.0 (Graphpad Software, Inc., San Diego, Calif.) as described previously (Narla et al., Supra). […]

[2] = system: MDA-MB-231 breast cancer cells; assay: MTT cytotoxicity assay, MDA-MB-231; details: MDA-MB-231 cells, 48 h incubation, 3 independent experiments, read-out: IC50 (mean ± SE)
Protocol: as §1, §2

[3] = system: U87 cells; assay: In vitro invasion assay, Matrigel-coated Boyden chambers, U87; details: 24 h preincubation, 3 experiments, read-out: Mean IC50 inhibition of invasion through Matrigel matrix
Protocol: Tumor invasion of the basement membrane is a crucial step in the complex multistage process that leads to metastatic spread. Tumor cells cross the basement membrane as they initially invade the lymphatic or vascular beds during dissemination and as they penetrate their target tissues. […]
Invasion of cancer cells treated with [VO(SO4)(Me2-Phen)2] was assayed using Matrigel-coated Costar 24-well transwell cell culture chambers (“Boyden chambers”) with 8.0-μm-pore polycarbonate filter inserts as described previously (Narla et al., Clin Cancer Res, 4: 2463-2471, 1998; Ghosh et al., Anticancer Drug Des, 14: 403-410, 1999; Albini et al., J Cell Biol, 105: 1867-1872, 1987). […] The cells were trypsinized, washed twice with serum-free medium containing BSA, counted and resuspended in a serum-free medium at 1×10^5 cells/ml. […] The invasive cells that migrated to the lower side of the filter were fixed, stained with Hema-3 solution and counted under a light microscope. Five to 10 random fields per filter were counted to determine the invasive fraction. The invasive fractions of cells treated with [VO(SO4)(Me2-Phen)2] were compared to those of DMSO-treated control cells and the percent inhibition of invasiveness was determined. […]

Cc1ccnc2c1ccc1c(C)ccnc12.Cc1ccnc2c1ccc1c(C)ccnc12.O=S(=O)([O-])[O-].[O]=[V+2] [[VO(SO4)(Me2-Phen)2], bis(4,7-dimethyl-1,10-phenanthroline) sulfatooxovanadium (IV)]
IC50 [1]: 1900 ± 500 nM | IC50 [2]: 500 ± 100 nM | IC50 [3]: 780 ± 400 nM
